# According to publication PMC7899551, “Phase 1 study of Z-endoxifen in patients with advanced gynecologic, desmoid, and hormone receptor-positive solid tumors” (Oncotarget, 2021):
# Tests used:
# [1] = Safety: adverse events (CTCAE v4.0), DLT, MTD; format: in vivo
# Protocol: This was an open-label trial of Z-endoxifen in patients with advanced solid tumors (https://clinicaltrials.gov/ identifier: NCT01273168). Z-endoxifen-HCl was supplied by the Pharmaceutical Management Branch, National Cancer Institute, as 20 and 40 mg capsules; agent was administered orally once daily on a continuous schedule in 28-day cycles with a starting dose of 20 mg/day taken either 1 hour before or 2 hours after meals. Dose escalation followed a traditional 3+3 design in which patients were dose-escalated to the next dose level (DL) in cohorts of 3 patients until dose-limiting toxicity (DLT) was observed. […] Eight dose levels (DL1-8) were examined: 20, 40, 60, 100, 140, 200, 280, and 360 mg, respectively. Two patients at DL8 received the free base form of Z-endoxifen on day 1 rather than the hydrochloride salt to assess the pharmacokinetics of that formulation.
# Toxicities were graded using Common Terminology Criteria for Adverse Events (CTCAE) version 4.0. Toxicities were required to resolve to grade 2 or below prior to initiation of the next cycle. Occurrence of a DLT was to result in a dose reduction following resolution to grade ≤ 2. No more than 2 dose reductions were allowed per patient on study. The MTD was defined as the highest dose level at which no more than 1 in 6 patients experienced a DLT.
# ERα = molecular target: T1, ERα (Homo sapiens, UniProt P03372); assay: 18F-FES PET/CT imaging (blocking estrogen receptor binding); format: in vivo; conditions: after 1–5 days of oral treatment
# T1 construct: from tissue; host or cells: patients' tumors in vivo, e.g. a pre-sacral soft tissue lesion of serous ovarian cancer
# T1 sequence (P03372 1-595): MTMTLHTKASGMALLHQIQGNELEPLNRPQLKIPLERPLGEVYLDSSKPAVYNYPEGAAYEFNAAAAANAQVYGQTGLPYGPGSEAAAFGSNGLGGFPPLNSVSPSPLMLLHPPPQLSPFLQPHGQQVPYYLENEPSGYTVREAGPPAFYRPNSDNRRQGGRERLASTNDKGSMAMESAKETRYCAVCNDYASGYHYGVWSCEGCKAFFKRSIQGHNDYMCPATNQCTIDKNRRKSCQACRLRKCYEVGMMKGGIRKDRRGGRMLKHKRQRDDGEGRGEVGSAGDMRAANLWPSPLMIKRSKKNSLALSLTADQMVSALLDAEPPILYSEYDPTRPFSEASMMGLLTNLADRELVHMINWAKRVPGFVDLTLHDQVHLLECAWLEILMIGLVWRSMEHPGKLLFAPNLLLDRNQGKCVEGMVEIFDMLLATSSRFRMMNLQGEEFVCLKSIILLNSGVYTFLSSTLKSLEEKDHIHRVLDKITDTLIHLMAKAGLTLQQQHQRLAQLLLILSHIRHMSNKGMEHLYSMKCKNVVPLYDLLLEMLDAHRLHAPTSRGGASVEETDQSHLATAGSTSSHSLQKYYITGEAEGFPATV
# Protocol: The pharmacodynamic effect of Z-endoxifen, blocking estrogen receptor binding, was assessed by ^18F-FES PET/CT imaging. […] Twenty patients in this trial agreed to be screened by ^18F-FES PET/CT imaging to assess ER status. Ten patients who were positive prior to treatment were re-imaged from 1 to 5 days after treatment initiation. We present here images taken after 3 days of treatment from a patient with serous ovarian cancer whose imaging has not previously been reported (patient 40, DL8, Figure 2). […] This patient developed a bowel obstruction during cycle 1 attributed to their disease and chose to come off study. Other images from patients in this trial have been previously reported.
# The uptake of ^18F-FES was measured using PET/CT imaging in patients enrolled in the present trial before and after 1–5 days of treatment with oral Z-endoxifen HCl as previously described. Five additional patients were scanned following the publication of the imaging approach. The images presented here are from one of these 5 patients.
# [2] = tested on: ER+ metastatic breast cancer; parameters: method as in PMID 28854070; conditions: cited from earlier work
compound,measurement,setting,value
CC/C(=C(\c1ccc(O)cc1)c1ccc(OCCNC)cc1)c1ccccc1 [Z-endoxifen],"Anemia, grade 2","[1]; DL2 40 mg, n = 6",1 patients
same,"Elevated ALT, grade 2","[1]; DL2 40 mg, n = 6",1 patients
same,"Fatigue, grade 2","[1]; DL2 40 mg, n = 6",1 patients
same,"Lymphopenia, grade 2","[1]; DL2 40 mg, n = 6",3 patients
same,"Mucositis (oral), grade 2","[1]; DL2 40 mg, n = 6",1 patients
same,"Thromboembolic event, grade 2","[1]; DL2 40 mg, n = 6",1 patients
same,"Thromboembolic event, grade 4","[1]; DL2 40 mg, n = 6",1 patients
same,"Vestibular disorder, grade 2","[1]; DL2 40 mg, n = 6",1 patients
same,DLT,"[1]; DL2 (40 mg/day), patient 4",grade 4 pulmonary embolism
same,"Anemia, grade 2","[1]; DL3 60 mg, n = 3",1 patients
same,"Leukopenia, grade 2","[1]; DL3 60 mg, n = 3",1 patients
same,"Neutropenia, grade 2","[1]; DL3 60 mg, n = 3",1 patients
same,"Anemia, grade 2","[1]; DL4 100 mg, n = 3",1 patients
same,"Lymphopenia, grade 2","[1]; DL4 100 mg, n = 3",1 patients
same,"Fatigue, grade 2","[1]; DL5 140 mg, n = 3",1 patients
same,"Leukopenia, grade 2","[1]; DL5 140 mg, n = 3",1 patients
same,"Neutropenia, grade 2","[1]; DL5 140 mg, n = 3",1 patients
same,"Reflux, grade 2","[1]; DL5 140 mg, n = 3",1 patients
same,"Fatigue, grade 2","[1]; DL6 200 mg, n = 3",1 patients
same,"Hypertension, grade 2","[1]; DL6 200 mg, n = 3",1 patients
same,"Abdominal pain, grade 3","[1]; DL7 280 mg, n = 7",1 patients
same,"Anemia, grade 2","[1]; DL7 280 mg, n = 7",2 patients
same,"Diarrhea, grade 3","[1]; DL7 280 mg, n = 7",1 patients
same,"Elevated ALT, grade 2","[1]; DL7 280 mg, n = 7",1 patients
same,"Elevated ALT, grade 3","[1]; DL7 280 mg, n = 7",1 patients
same,"Elevated AST, grade 2","[1]; DL7 280 mg, n = 7",1 patients
same,"Fatigue, grade 2","[1]; DL7 280 mg, n = 7",1 patients
same,"Hypophosphatemia, grade 2","[1]; DL7 280 mg, n = 7",1 patients
same,"Hypophosphatemia, grade 4","[1]; DL7 280 mg, n = 7",1 patients
same,"Lymphopenia, grade 2","[1]; DL7 280 mg, n = 7",1 patients
same,DLT,"[1]; DL7 (280 mg/day), patient 22",grade 3 ALT elevation
same,"Anemia, grade 2","[1]; DL8 360 mg, n = 12",4 patients
same,"Anemia, grade 3","[1]; DL8 360 mg, n = 12",1 patients
same,"Colonic perforation, grade 4","[1]; DL8 360 mg, n = 12",1 patients
same,"Constipation, grade 2","[1]; DL8 360 mg, n = 12",1 patients
same,"Dehydration, grade 3","[1]; DL8 360 mg, n = 12",1 patients
same,"Dyspepsia, grade 2","[1]; DL8 360 mg, n = 12",1 patients
same,"Elevated ALT, grade 2","[1]; DL8 360 mg, n = 12",2 patients
same,"Elevated ALT, grade 3","[1]; DL8 360 mg, n = 12",1 patients
same,"Elevated AST, grade 2","[1]; DL8 360 mg, n = 12",1 patients
same,"Fatigue, grade 2","[1]; DL8 360 mg, n = 12",1 patients
same,"Hyponatremia, grade 3","[1]; DL8 360 mg, n = 12",1 patients
same,"Hypophosphatemia, grade 2","[1]; DL8 360 mg, n = 12",2 patients
same,"Hypophosphatemia, grade 3","[1]; DL8 360 mg, n = 12",2 patients
same,"Leukopenia, grade 2","[1]; DL8 360 mg, n = 12",1 patients
same,"Lymphopenia, grade 2","[1]; DL8 360 mg, n = 12",5 patients
same,"Lymphopenia, grade 3","[1]; DL8 360 mg, n = 12",1 patients
same,"Nausea, grade 2","[1]; DL8 360 mg, n = 12",1 patients
same,"Rash, grade 2","[1]; DL8 360 mg, n = 12",1 patients
same,"Stroke, grade 2","[1]; DL8 360 mg, n = 12",1 patients
same,"Thromboembolic event, grade 2","[1]; DL8 360 mg, n = 12",1 patients
same,"adverse event at end of cycle 1, disease most likely cause","[1]; DL8 (360 mg), patient with fallopian tube carcinoma",grade 4 colonic perforation
same,grade 4 adverse events potentially related to the study agent,[1]; all dose levels,Three grade 4 adverse events
same,"anemia, grade ≥ 2 (grades 2 and 3), study-related",[1]; of 40 patients enrolled,10 patients
same,"lymphopenia, grade ≥ 2 (grades 2 and 3), study-related",[1]; of 40 patients enrolled,11 patients
same,tolerability,"[1]; oral daily, 20-360 mg/day",generally well tolerated
same,maximum tolerated dose,"[1]; oral daily, up to 360 mg/day",No maximum tolerated dose was established
same,18F-FES tracer uptake on PET/CT,ERα,FES tracer uptake could be reduced
same,Plasma concentration on day 1,"[2]; 160 mg dose, 38 patients with ER+ metastatic breast cancer",333 ng/mL
same,overall CBR,"[2]; previous trial, highest dose 160 mg/day",26.3%
